Experimental findings from ChEMBL document CHEMBL3779791, “Captopril analogues as metallo-β-lactamase inhibitors” (Bioorg Med Chem Lett, 2016) are described below.

Activity calls are given as the source filed them. The rule behind the calls is not given here.

In the experiment the test system is Pseudomonas aeruginosa. The experiment is described as follows: Competitive inhibition of Pseudomonas aeruginosa 101/1477 metallo-beta-lactamase IMP-1 expressed in Escherichia coli BL21 (DE3) using benzylpenicillin as substrate by spectrophotometric analysis.
`O=C(O)C1CCCCN1C(=O)CCCS` (racemic) registered a Kic of 7.1 µM.

In the case of `O=C(O)[C@H]1CCCN1C(=O)CCS`, the Kic came to 2.9 µM.

On to `O=C(O)CC(=O)N1CCC[C@H]1C(=O)O`, for which the Kic result was “inactive”.

For the compound `O=C(O)CCCC(=O)N1CCC[C@@H]1C(=O)O`, the Kic entry is “inactive”.

Regarding `O=C(O)COC[C@H]1CCCN1C(=O)CCCS`, the Kic was 363 µM.

The compound `O=C(O)[C@@H]1CCCN1C(=O)CS` yielded a Kic of 2.2 µM.

The compound `CC(=O)SCC(=O)N1CCCCC1C(=O)O` (racemic) displayed a Kic of 24 µM.

For `O=C(O)CCC(=O)N1CCC[C@H]1C(=O)O`, the Kic result is “inactive”.

On to `O=C(O)[C@H]1CCCN1C(=O)CS`, for which the Kic was 2.3 µM.

In the case of `O=C(O)CCCC(=O)N1CCC[C@H]1C(=O)O`, the Kic result was “inactive”.

Turning to `O=C(O)CCC(=O)N1CCC[C@@H]1C(=O)O`, the Kic result was “inactive”.

Consider `O=C(O)[C@@H]1CCCN1C(=O)CCS`, for which the Kic worked out at 9.9 µM.

Turning to `O=C(O)COC[C@H]1CCCN1C(=O)CS`, the Kic was determined as 290 µM.

In turn, `O=C(O)[C@@H]1CCCN1C(=O)CCCS` returned a Kic of 7.2 µM.

As for `O=C(O)CC(=O)N1CCC[C@@H]1C(=O)O`, the Kic entry is “inactive”.

As to `O=C(O)C1CCCCN1C(=O)CS` (racemic), the Kic worked out at 3.4 µM.

In the case of `O=C(O)C1CCCCN1C(=O)CCS` (racemic), the Kic turned out to be 10 µM.

For `O=C(O)[C@H]1CCCN1C(=O)CCCS`, the Kic came to 5.8 µM.

Consider `O=C(O)COC[C@H]1CCCN1C(=O)CCS`, for which the Kic is 390 µM.
